MIC, ED50 and LD50 data for seven compounds are collected here from patent US4880798A, “Cephalosporin derivatives” (Mochida Pharmaceutical Co., Ltd., priority 1986, dated 1989).

Converted amounts (≈) assume the structure as drawn. Read-outs that look alike come from different tables or passages of the source.

In series [1] the test system is Escherichia coli NIHJ JC 2. Nature of the series: Antibacterial activity in vitro (MIC), agar plate dilution method. The following applies: NIHJJC2, Mueller Hinton agar, 10^6 cells/ml, 37° C., 20 hours. The series is classed as cell-based. The procedure:
(§1) Antibacterial activity in vitro was determined in accordance with the agar plate dilution method.
(§2) A platinum loop each of test bacteria (10^6 cells/ml), cultured in Mueller Hinton broth, was inoculated on Mueller Hinton agar plates which contained test compounds at various concentrations. After cultivating at 37° C. for 20 hours, the minimum inhibitory concentration (MIC μg/ml) was determined.

The subject of series [2] is Klebsiella pneumoniae IFO 3317. The series is described as above. The series is classed as cell-based. Here is the method:
as §1, §2

Series [3] deals with Pseudomonas aeruginosa 34. Described as above. The format is cell-based. The procedure:
as §1, §2

The test system of series [4] is Serratia marcescens IFO 3759. Described as above. The format is cell-based. The procedure: as §1, §2
The next series relates to Enterobacter 8. The series is described as follows: Protection against systemic bacterial infection in ICR mice (ED50). The series is classed as in vivo. The note with it: 168 h. The procedure: (§3) Protection ability against systemic bacterial infection was determined as follows. An aqueous suspension of test bacteria was intraperitoneally injected into 10 four week old ICR mice. One hour after the infection, test compounds were intravenously administered. The number of surviving mice was counted 1 week after injection to determine the dose at which 50% of the test animals were alive (ED50 : mg/kg).

For another series, the system named is Escherichia coli 67. The description is as above. The series is classed as in vivo. The following applies: iv, 168 h, Escherichia coli 67, i.p. infection, compound i.v. one hour after infection, survival 1 week. The procedure: as §3
The subject of series [5] is Klebsiella pneumoniae IFO 3317. The description is as above. The format is in vivo. The following applies: IFO3317, iv, 168 h. The procedure:
as §3

Series [6] relates to Pseudomonas aeruginosa 34. The series is described as above. The series is classed as in vivo. The following applies: 168 h. Here is the method:
as §3

Series [7] has as its system Pseudomonas aeruginosa IFO 3445. The description is as above. The format is in vivo. The note with it: IFO3445, iv, 168 h. Here is the method: as §3
A further series relates to Serratia marcescens 274. The description is as above. The format is in vivo. The following applies: 168 h. Here is the method: as §3
In series [8] the test system is Staphylococcus aureus 209P. The series is described as follows: Antibacterial activity in vitro (MIC), agar plate dilution method. The format is cell-based. The following applies: Mueller Hinton agar, 10^6 cells/ml, 37° C., 20 hours. Here is the method: as §1, §2
In the next series the test system is Staphylococcus aureus 58. The series is described as follows: Protection against systemic bacterial infection in ICR mice (ED50). The following applies: iv, 168 h, Staphylococcus aureus 58 (methicillin-resistant strain), i.p. infection, compound i.v. one hour after infection, survival 1 week. The format is in vivo. The procedure:
as §3

A further series can be described thus: LD50, Probit method. The following applies: in vivo, iv. Here is the method: Next, LD50 of representative examples of the compounds of the present invention is shown in Table 3 wherein LD50 was determined in accordance with the Probit method.
The test system of another series is Staphylococcus aureus 4. The series is described as follows: Protection against systemic bacterial infection in ICR mice (ED50). The following applies: iv, 168 h, Staphylococcus aureus 4 (methicillin-resistant strain), i.p. infection, compound i.v. one hour after infection, survival 1 week. The series is classed as in vivo. The procedure: as §3
Where [9] appears, read: IFO3317, Klebsiella pneumoniae IFO 3317, Mueller Hinton agar, 10^6 cells/ml, 37° C., 20 hours, read-out: MIC.
Where [10] appears, read: Pseudomonas aeruginosa 34, Mueller Hinton agar, 10^6 cells/ml, 37° C., 20 hours, read-out: MIC.
The mark [11] stands for this setting: IFO3759, Serratia marcescens IFO 3759, Mueller Hinton agar, 10^6 cells/ml, 37° C., 20 hours, read-out: MIC.
[12] abbreviates: iv, Enterobacter 8, i.p. infection, ICR mice, compound i.v. one hour after infection, survival 1 week, read-out: ED50.
[13] abbreviates: Klebsiella pneumoniae IFO 3317, i.p. infection, ICR mice, compound i.v. one hour after infection, survival 1 week, read-out: ED50.
Setting [14] is: Pseudomonas aeruginosa IFO 3445, i.p. infection, ICR mice, compound i.v. one hour after infection, survival 1 week, read-out: ED50.
Setting [15] is: iv, Serratia marcescens 274, i.p. infection, ICR mice, compound i.v. one hour after infection, survival 1 week, read-out: ED50.
The mark [16] stands for this setting: iv, Pseudomonas aeruginosa 34, i.p. infection, ICR mice, compound i.v. one hour after infection, survival 1 week, read-out: ED50.

The MIC is the least concentration at which growth counts as inhibited. Broadly, the ED50 is the dose at which the effect has come halfway, by size or by number of responders. As to `CC(C)(O/N=C(\C(=O)N[C@@H]1C(=O)N2C(C(=O)[O-])=C(C[n+]3ccccc3)CS[C@H]12)c1csc(N)n1)C(=O)O` [CAZ, Ceftazidime, reference compound], the MIC in series [1] was 0.2 µg/mL (≈ 0.366 µM); in series [2] (Klebsiella pneumoniae, IFO3317, 20 h), less than 0.05 µg/mL; in series [3] (Pseudomonas aeruginosa, 34, 20 h) it was 3.13 µg/mL (≈ 5.73 µM); in series [4] (Serratia marcescens, IFO3759, 20 h) it was less than 0.05 µg/mL. The ED50 came out at 4.36 mg/kg in the series with Enterobacter 8 (Enterobacter, 8, iv); 2.8 mg/kg in the series with Escherichia coli 67; 1.73 mg/kg in series [5] (Klebsiella pneumoniae); 123 mg/kg in series [6] (Pseudomonas aeruginosa, 34, iv); 230 mg/kg in series [7] (Pseudomonas aeruginosa); 3.62 mg/kg in the series with Serratia marcescens 274 (Serratia marcescens, 274, iv).
Usually LD50 stands for the dose expected to kill half of the subjects tested. Read a high LD50 as lower toxicity. For `Cc1cc(SCC2=C(C(=O)O)N3C(=O)[C@@H](NC(=O)/C(=N\OCc4cc(C(=O)O)cc(O)c4O)c4csc(N)n4)[C@H]3SC2)n2nc(C(=O)O)nc2n1` [Compound 2, (6R,7R)-7-[2-(2-amino-4-thiazolyl)-2-[Z-[(5-carboxy-2,3-dihydroxyphenyl)methyl]oxyimino]acetamido]-3-[(2-carboxy-5-methyl-s-triazolo[1,5-a]pyrimidin-7-yl)thiomethyl]-8-oxo-5-thia-1-azabicyclo[4.2.0]oct-2-ene-2-carboxylic acid], the MIC worked out at 0.39 µg/mL (≈ 0.515 µM) in [1]; 0.05 µg/mL (≈ 0.066 µM) in [2] (setting [9]); 0.2 µg/mL (≈ 0.264 µM) in series [3] (setting [10]); 0.1 µg/mL (≈ 0.132 µM) in series [4] (setting [11]); 6.25 µg/mL (≈ 8.25 µM) in series [8]. Further, the ED50 in the series on Enterobacter 8 (setting [12]) amounted to 1.31 mg/kg; in the series with Escherichia coli 67, 1.1 mg/kg; in [5] (setting [13]) it was 0.34 mg/kg; in series [7] (setting [14]), 33.7 mg/kg; with Serratia marcescens 274 (setting [15]) it was 0.55 mg/kg; with Staphylococcus aureus 58, 9.65 mg/kg. This compound also had an LD50 in “LD50, Probit method” greater than 4000 mg/kg.
As to `Cc1cc(SCC2=C(C(=O)O)N3C(=O)[C@@H](NC(=O)/C(=N\OCc4cc(O)c(O)c(C(=O)O)c4)c4csc(N)n4)[C@H]3SC2)n2nc(C(=O)O)nc2n1` [Compound 3, (6R,7R)-7-[2-(2-amino-4-thiazolyl)-2-[Z-[(3-carboxy-4,5-dihydroxyphenyl)methyl]oxyimino]acetamido]-3-[(2-carboxy-5-methyl-s-triazolo[1,5-a]pyrimidin-7-yl)thiomethyl]-8-oxo-5-thia-1-azabicyclo[4.2.0]oct-2-ene-2-carboxylic acid], the MIC was determined as 0.78 µg/mL (≈ 1.03 µM) in series [1], 0.1 µg/mL (≈ 0.132 µM) in series [2] (setting [9]), 0.78 µg/mL (≈ 1.03 µM) in [4] (setting [11]) and 6.25 µg/mL (≈ 8.25 µM) in [8]. Further, the values for the ED50 (in series [6] (setting [16]); with Serratia marcescens 274 (setting [15]); with Staphylococcus aureus 4) were 46.8 mg/kg, 0.72 mg/kg and 2.08 mg/kg, respectively. Besides, the LD50 in “LD50, Probit method” is greater than 4000 mg/kg.
On to `Cc1cc(SCC2=C(C(=O)O)N3C(=O)[C@@H](NC(=O)/C(=N\OCc4ccc(O)c(O)c4C(=O)O)c4csc(N)n4)[C@H]3SC2)n2nc(C(=O)O)nc2n1` [Compound 4, (6R,7R)-7-[2-(2-amino-4-thiazolyl)-2-[Z-[(2-carboxy-3,4-dihydroxyphenyl)methyl]oxyimino]acetamido]-3-[(2-carboxy-5-methyl-s-triazolo[1,5-a]pyrimidin-7-yl)thiomethyl]-8-oxo-5-thia-1-azabicyclo[4.2.0]oct-2-ene-2-carboxylic acid], for which the MIC in series [1] stood at 0.39 µg/mL (≈ 0.515 µM); in [2] (setting [9]), 0.05 µg/mL (≈ 0.066 µM); in series [4] (setting [11]), 0.39 µg/mL (≈ 0.515 µM); in series [8] it was 3.13 µg/mL (≈ 4.13 µM). For the same compound, the ED50 in series [6] (setting [16]) is 50.6 mg/kg; in the series with Serratia marcescens 274 (setting [15]) it was 0.97 mg/kg; with Staphylococcus aureus 4 it was 3.35 mg/kg. This compound showed an LD50 in the series “LD50, Probit method” greater than 4000 mg/kg.
Regarding `Cc1cc(SCC2=C(C(=O)O)N3C(=O)[C@@H](NC(=O)/C(=N\OCc4ccc(C(=O)O)c(O)c4O)c4csc(N)n4)[C@H]3SC2)n2nc(C(=O)O)nc2n1` [Compound 5, (6R,7R)-7-[2-(2-amino-4-thiazolyl)-2-[Z-[(4-carboxy-2,3-dihydroxyphenyl)methyl]oxyimino]acetamido]-3-[(2-carboxy-5-methyl-s-triazolo[1,5-a]pyrimidin-7-yl)thiomethyl]-8-oxo-5-thia-1-azabicyclo[4.2.0]oct-2-ene-2-carboxylic acid], the MIC in series [1] is 0.78 µg/mL (≈ 1.03 µM); in [2] (setting [9]), 0.05 µg/mL (≈ 0.066 µM); in [4] (setting [11]), 0.78 µg/mL (≈ 1.03 µM); in series [8] it was 3.13 µg/mL (≈ 4.13 µM). Further, the results for the ED50 (in series [6] (setting [16]); in the series on Serratia marcescens 274 (setting [15]); in the series on Staphylococcus aureus 4) were 81.2 mg/kg, 0.75 mg/kg and 4.21 mg/kg, respectively. For the same compound, in the series “LD50, Probit method”, the LD50 is greater than 4000 mg/kg.
Turning to `Cn1nnnc1SCC1=C(C(=O)O)N2C(=O)[C@@H](NC(=O)[C@H](O)c3ccccc3)[C@H]2SC1` [CMD, Cefamandole, reference compound], the ED50 in the series on Staphylococcus aureus 4 amounted to 5.94 mg/kg; with Staphylococcus aureus 58, 18.9 mg/kg.
In the case of `Cc1cc(SCC2=C(C(=O)O)N3C(=O)[C@@H](NC(=O)/C(=N\OCc4c(C(=O)O)ccc(O)c4O)c4csc(N)n4)[C@H]3SC2)n2nc(C(=O)O)nc2n1` [Compound 1, (6R,7R)-7-[2-(2-amino-4-thiazolyl)-2-[Z-[(6-carboxy-2,3-dihydroxyphenyl)methyl]oxyimino]acetamido]-3-[(2-carboxy-5-methyl-s-triazolo[1,5-a]pyrimidin-7-yl)thiomethyl]-8-oxo-5-thia-1-azabicyclo[4.2.0]oct-2-ene-2-carboxylic acid], the MIC in series [1] was 0.78 µg/mL (≈ 1.03 µM); in [2] (setting [9]), less than 0.05 µg/mL; in [3] (setting [10]), 0.2 µg/mL (≈ 0.264 µM); in [4] (setting [11]) it was 0.39 µg/mL (≈ 0.515 µM); in [8], 6.25 µg/mL (≈ 8.25 µM). For the same compound, the ED50 in the series on Enterobacter 8 (setting [12]) was found to be 1.28 mg/kg; in the series on Escherichia coli 67 it was 1.59 mg/kg; in series [5] (setting [13]) it was 0.55 mg/kg; in series [7] (setting [14]) it was 52 mg/kg; in the series on Serratia marcescens 274 (setting [15]), 0.5 mg/kg; with Staphylococcus aureus 58, 15.9 mg/kg. This compound also gave an LD50 in the series “LD50, Probit method” greater than 4000 mg/kg.
